Measurements: ChEMBL document CHEMBL3044854, “Synthesis and biological evaluation of diamide derivatives of (S)-BINOL and biphenyl as potential anti-inflammatory/anti-arthritic agents” (2013)

Key:
[1] = Anti-inflammatory activity in Homo sapiens (human) RBCs assessed as prevention of hemolysis at 10 ug/mL after 30 min by UV-Vis spectrophotometric analysis relative to control; assay type: functional, Erythrocyte
[2] = In vitro antiarthritic activity assessed as inhibition of bovine serum albumin denaturation at 100 ug/mL after 20 min by UV-Visible spectrophotometric analysis relative to control; assay type: functional
[3] = Anti-inflammatory activity in Homo sapiens (human) RBCs assessed as prevention of hemolysis at 50 ug/mL after 30 min by UV-Vis spectrophotometric analysis relative to control; assay type: functional, Erythrocyte
[4] = Anti-inflammatory activity in Homo sapiens (human) RBCs assessed as prevention of hemolysis at 200 ug/mL after 30 min by UV-Vis spectrophotometric analysis relative to control; assay type: functional, Erythrocyte
[5] = In vitro antiarthritic activity assessed as inhibition of bovine serum albumin denaturation at 200 ug/mL after 20 min by UV-Visible spectrophotometric analysis relative to control; assay type: functional
[6] = In vitro antiarthritic activity assessed as inhibition of bovine serum albumin denaturation at 50 ug/mL after 20 min by UV-Visible spectrophotometric analysis relative to control; assay type: functional
[7] = In vitro antiarthritic activity assessed as inhibition of bovine serum albumin denaturation at 400 ug/mL after 20 min by UV-Visible spectrophotometric analysis relative to control; assay type: functional
[8] = Anti-inflammatory activity in Homo sapiens (human) RBCs assessed as prevention of hemolysis at 100 ug/mL after 30 min by UV-Vis spectrophotometric analysis relative to control; assay type: functional, Erythrocyte
[9] = In vitro antiarthritic activity assessed as inhibition of bovine serum albumin denaturation at 800 ug/mL after 20 min by UV-Visible spectrophotometric analysis relative to control; assay type: functional
[10] = In vitro antiarthritic activity assessed as inhibition of bovine serum albumin denaturation after 20 min by UV-Visible spectrophotometric analysis; assay type: functional
[11] = test system: Erythrocyte; assay: Anti-inflammatory activity in Homo sapiens (human) RBCs assessed as prevention of hemolysis after 30 min by UV-Vis spectrophotometric analysis; assay type: functional, cell-based

| Compound | Activity [1] [%] | inhibition [2] [%] | Activity [3] [%] | Activity [4] [%] | inhibition [5] [%] | inhibition [6] [%] | inhibition [7] [%] | Activity [8] [%] | inhibition [9] [%] | inhibition [10] | inhibition [11] |
| --- | --- | --- | --- | --- | --- | --- | --- | --- | --- | --- | --- |
| O=C(NCCSCCOc1ccccc1-c1ccccc1OCCSCCNC(=O)c1ccccc1)c1ccccc1 | 35.7 | 38.2 | 49 | 77.5 | 53 | 15.8 | 67.8 | 60.7 | 81.8 | Dose-dependent effect | Dose-dependent effect |
| O=C(Cn1cnnn1)NCCSCCOc1ccccc1-c1ccccc1OCCSCCNC(=O)Cn1cnnn1 | 54 | 42.2 | 63.3 | 89.4 | 65.1 | 21.6 | 76.3 | 75.3 | 91.9 | Dose-dependent effect | Dose-dependent effect |
| C[C@]12C=CC(=O)C=C1CC[C@@H]1[C@@H]2[C@@H](O)C[C@@]2(C)[C@H]1CC[C@]2(O)C(=O)CO [PREDNISOLONE] | 46 | – | 57.9 | 91 | – | – | – | 84.8 | – | – | – |
| O=C(O)Cc1ccccc1Nc1c(Cl)cccc1Cl | – | 10.9 | – | – | 15.2 | 5.6 | 21.6 | – | 76.7 | – | – |
| O=C(NCCSCCOc1ccc2ccccc2c1-c1c(OCCSCCNC(=O)c2ccco2)ccc2ccccc12)c1ccco1 | 56.5 | 50.8 | 65.5 | 96.2 | 71.5 | 29.5 | 87.8 | 88.9 | 98.7 | Dose-dependent effect | Dose-dependent effect |
| O=C(Cn1cnnn1)NCCSCCOc1ccc2ccccc2c1-c1c(OCCSCCNC(=O)Cn2cnnn2)ccc2ccccc12 | 61.9 | 39.6 | 69.7 | 91.6 | 67.1 | 19.6 | 74.1 | 82.5 | 94.2 | Dose-dependent effect | Dose-dependent effect |
| O=C(NCCSCCOc1ccc2ccccc2c1-c1c(OCCSCCNC(=O)c2ccccc2)ccc2ccccc12)c1ccccc1 | 34.5 | 30.3 | 51.4 | 79.4 | 52.3 | 19.5 | 65.8 | 63.6 | 82.7 | Dose-dependent effect | Dose-dependent effect |
| O=C(Cc1cccs1)NCCSCCOc1ccc2ccccc2c1-c1c(OCCSCCNC(=O)Cc2cccs2)ccc2ccccc12 | 50.2 | 42.2 | 61.7 | 86 | 59.1 | 23.6 | 73.3 | 72.8 | 87.4 | Dose-dependent effect | Dose-dependent effect |
| O=C(NCCSCCOc1ccccc1-c1ccccc1OCCSCCNC(=O)c1ccco1)c1ccco1 | 55.2 | 46.6 | 62.9 | 94.1 | 68.8 | 25.7 | 83.1 | 84.7 | 97.2 | Dose-dependent effect | Dose-dependent effect |
| O=C(Cc1cccs1)NCCSCCOc1ccccc1-c1ccccc1OCCSCCNC(=O)Cc1cccs1 | 47.3 | 34.9 | 58.6 | 83.3 | 41.1 | 28.3 | 69.6 | 67.2 | 84.8 | Dose-dependent effect | Dose-dependent effect |
